Experimental data reported in US6924314B2, “Compounds for the treatment of metabolic disorders” (Wellstat Therapeutics Corporation, priority 2001, dated 2005).

Experiments:
[1] = test system: db/db mice; experiment: Antidiabetic effects in db/db mice, four weeks of daily oral dosing; type: in vivo; conditions: 100 mg/kg daily oral, four weeks
Source text: Db/db mice have a defect in leptin signaling, leading to hyperphagia, obesity and diabetes. Moreover, unlike ob/ob mice which have relatively robust islets, their insulin-producing pancreatic islet cells undergo failure during chronic hyperglycemia, so that they transition from hyperinsulinemia (associated with peripheral insulin resistance) to hypoinsulinemic diabetes.
Male db/db mice were given daily oral treatments with vehicle (0.75% hydroxypropylmethylcellulose) or antidiabetic compounds as indicated below. Blood samples were obtained via the retro-orbital sinus for serum chemistry analysis, or via the tail vein for glucose measurement with a test strip and glucometer.
The dose of pioglitazone used in this experiment was reported in the literature to be a maximally-effective dose for treatment of db/db mice (Shimaya et al. (2000), Metabolism 49:411-7).

[2] = test system: mice with lethal insulin-dependent diabetes; experiment: Survival of mice with lethal insulin-dependent diabetes (single dose streptozotocin); type: in vivo, Balb/C mice; conditions: 30 mg/kg/day oral gavage
Procedure: Female Balb/C mice (14 weeks old) were treated with a single dose of streptozotocin (175 mg/kg i.p.) to induce severe insulin-dependent diabetes. Seven days later, mice were divided into three treatment groups: Compound AH, pioglitazone, and vehicle. Mice were treated daily via oral gavage, and survival was monitored over time.

[3] = test system: ob/ob mice; experiment: Hyperglycemia, hyperlipidemia, fatty liver disease and weight gain in ob/ob obese diabetic mice, daily oral dosing; type: in vivo, C57BL/6 mice; conditions: for Free Fatty Acids ± SEM / Glucose ± SEM / Triglycerides ± SEM / ALT (U/L) ± SEM / AST (U/L) ± SEM / SDH (U/L) ± SEM: 4 weeks; for Mean body weight gain (grams): four week treatment period; for ALT (U/L) ± SEM / AST (U/L) ± SEM / SDH (U/L) ± SEM: serum
Source text: Ob/ob mice have a defect in the gene for leptin, a protein involved in appetite regulation and energy metabolism, and are hyperphagic, obese, and insulin resistant. They develop hyperglycemia and fatty liver.

[4] = test system: Zucker Diabetic Fatty (ZDF) rats; experiment: Attenuation of cataractogenesis in Zucker Diabetic Fatty (ZDF) rats; type: in vivo; conditions: 100 mg/kg daily oral, 10 weeks
Source text: Cataracts are one of the leading causes of progressive vision decline and blindness associated with ageing and diabetes, and the Zucker diabetic fatty (ZDF) model has many similarities with human cataractogenesis, including biochemical changes and oxidative stress in the lens. These rats, however, undergo cataractogenesis typically between 14-16 weeks of age.
Male ZDF rats and their aged-match Zucker lean (ZL) counterparts (fa/+ or +/+) were obtained from Genetic Models, Inc. (Indianapolis, Ind.) aged 12 weeks and acclimatized for 1 week prior to study. […] Treatment cohorts were given a daily oral dose of vehicle and 100 mg/kg of BI or BH for 10 weeks. […] At the end of the treatment period 100 μl of venous blood was collected (usually 10:00 A.M.) in a heparinized tube from the tail vein for serum chemistry analysis (Anilytics, Inc., Gaithersburg, Md.). […] Plasma insulin was measured by an electrochemiluminescent immunoassay, ECL (Origen Analyzer, Igen, Inc., Gaithersburg, Md.). The animals were sacrificed and tissues and/or organs (lens and liver) were extirpated, weighed (wet weight) and processed for biochemical analyses. Malondialdehyde (MDA), a major product of lipid peroxidation was assayed in lenses according to Ohkawa et al (1979), Analytical Biochem 95, 351-358).

[5] = test system: db/db mice; experiment: Antidiabetic effects in db/db mice, 2 weeks (Example J); type: in vivo, C57BL/Ksola mice
Source text: db/db mice have a defect in leptin signaling, leading to hyperphagia, obesity and diabetes. Moreover, unlike ob/ob mice on a C57BL/6J background, db/db mice on a C57BL/KS background undergo failure of their insulin-producing pancreatic islet cells, resulting in progression from hyperinsulinemia (associated with peripheral insulin resistance) to hypoinsulinemic diabetes.
(§1) A minimum of 7 days was allowed for adaptation after arrival.
Treatment cohorts were given daily oral doses of Vehicle (1% hydroxypropylmethylcellulose), Compounds BI, BS, BT, BU, BV or Fenofibrate for 2 weeks. At the end of the treatment period 100 μl of venous blood was withdrawn in a heparinized capillary tube from the retro-orbital sinus of db/db mice for serum chemistry analysis.

[6] = test system: db/db mice; experiment: Antidiabetic effects in db/db mice, second experiment, 8 weeks of treatment; type: in vivo; conditions: for Glucose / Triglycerides: 8 weeks of treatment
Source text: Blood samples were obtained via the retro-orbital sinus for serum chemistry analysis, or via the tail vein for glucose measurement with a test strip and glucometer.
Groups consisted of 6-8 mice each.

[7] = test system: high fat-fed C57Bl/6J mice; experiment: Circulating triglycerides, free fatty acids, insulin and leptin in high fat-fed C57Bl/6J mice; type: in vivo; conditions: for Free Fatty Acids / Triglycerides: after 2 weeks of drug treatments
Source text: The high fat-fed mouse is a model for the hypertriglyceridemia and high circulating fatty acid levels, and the insulin and leptin resistance that are found in people at risk for and with obesity, diabetes, cardiovascular disease and other disorders. Male C57Bl/6J mice, approximately 8 weeks of age, were randomly assigned into groups of 6 animals. […] Mice were fed a high-fat diet (diet number D12451, containing 45% of calories as fat (Research Diets, New Brunswick, N.J.)) for 6 weeks. […]

[8] = test system: db/db mice; experiment: Antidiabetic effects in db/db mice, 2 weeks (Example I); type: in vivo, C57BL/Ksola mice; conditions: for Glucose / Glucose (% of Control): nonfasting; for Free Fatty Acids ± SEM / Triglycerides ± SEM: serum
Source text: db/db mice have a defect in leptin signaling, leading to hyperphagia, obesity and diabetes. Moreover, unlike ob/ob mice on a C57BL/6J background, db/db mice on a C57BL/KS background undergo failure of their insulin-producing pancreatic islet β cells, resulting in progression from hyperinsulinemia (associated with peripheral insulin resistance) to hypoinsulinemic diabetes.
as §1
Treatment cohorts were given daily oral doses of (1% hydroxypropylmethylcellulose), Compounds BI, BO, BP, BQ or BR for 2 weeks. At the end of the treatment period 100 μl of venous blood was withdrawn in a heparinized capillary tube from the retro-orbital sinus of db/db mice for serum chemistry analysis.

[9] = nonfasting, 100 mg/kg daily oral
[10] = serum, daily oral, dose per Table 12: 100 mg/kg

Structure (SMILES): CCc1ccc(CCOc2ccc(CC3SC(=O)NC3=O)cc2)nc1 (centres unmarked) [Pioglitazone, pioglitazone, reference compound]
- Glucose [1]: 558 ± 28 mg/dL
- Glucose (% of Control) [1]: 99 ± 5 % of Control
- body weight lost by survivors at 12 weeks [2]: 15-20%
- Survivors (Survival at 12 weeks) ([2]; STZ 175 mg/kg i.p. Balb/C mice): 2/5
- Free Fatty Acids ± SEM ([3]; 30 mg/kg/day oral): 2606 ± 139.2 µmol/L
- Glucose ± SEM ([3]; 30 mg/kg/day oral): 188.2 ± 21.4 mg/dL
- Triglycerides ± SEM ([3]; 30 mg/kg/day oral): 111.2 ± 7.5 mg/dL
- Mean body weight gain (grams) ([3]; 30 mg/kg/day): +10.0 grams
- Free Fatty Acids ± SEM ([3]; 100 mg/kg/day oral): 1983.4 ± 66.1 µmol/L
- Glucose ± SEM ([3]; 100 mg/kg/day oral): 174.6 ± 11.5 mg/dL
- Triglycerides ± SEM ([3]; 100 mg/kg/day oral): 95.2 ± 4.8 mg/dL
- Mean body weight gain (grams) ([3]; 100 mg/kg/day): +13.6 grams
- ALT (U/L) ± SEM ([3]; 30 mg/kg/day oral): 713.6 ± 80.6 U/L
- AST (U/L) ± SEM ([3]; 30 mg/kg/day oral): 1024 ± 88.7 U/L
- SDH (U/L) ± SEM ([3]; 30 mg/kg/day oral): 782.0 ± 70.6 U/L
- ALT (U/L) ± SEM ([3]; 100 mg/kg/day oral): 646.0 ± 56.1 U/L
- AST (U/L) ± SEM ([3]; 100 mg/kg/day oral): 901.0 ± 49.3 U/L
- SDH (U/L) ± SEM ([3]; 100 mg/kg/day oral): 603.0 ± 27.3 U/L

Structure (SMILES): Cc1cccc(C)c1COc1cccc(C(=O)CCC(=O)O)c1 [Compound BI, 4-(3-(2,6-Dimethylbenzyloxy)phenyl)-4-oxobutyric acid]
- % Protection Left Eye [4]: 50%
- % Protection Right Eye [4]: 83%
- Cataract Formation Left Eye [4]: 3/6
- Cataract Formation Right Eye [4]: 1/6
- Lenticular MDA ([4]; means ± SEM): 0.8 ± 0.1 nmol/g lens
- Size (mm) Left Lens ([4]; means ± SEM): 3.4 ± 0.2 mm
- Size (mm) Right Lens ([4]; means ± SEM): 3.8 ± 0.1 mm
- Weight (mg) Left Lens ([4]; means ± SEM): 38.1 ± 7.3 mg
- Weight (mg) Right Lens ([4]; means ± SEM): 54.9 ± 1.2 mg
- Glucose [5, 9]: 347.0 ± 43.1 mg/dL
- Glucose (% of Control) [5, 9]: 50 ± 6 % of Control
- Free Fatty Acids ± SEM [5, 10]: 1997.2 ± 196.4 µM
- Triglycerides ± SEM [5, 10]: 77.8 ± 5.3 mg/dL
- Glucose ([6]; 150 mg/kg): 254 ± 30 mg/dL
- Triglycerides ([6]; 150 mg/kg): 99 ± 8 mg/dL
- blood glucose and triglycerides compared to vehicle-treated controls ([6]; after 8 weeks of treatment): significantly lower
- Free Fatty Acids ([7]; 10 mg/kg oral gavage): 1227 ± 193.7 µmol/L
- Triglycerides ([7]; 10 mg/kg oral gavage): 68.8 ± 5.7 mg/dL
- Free Fatty Acids ([7]; 30 mg/kg oral gavage): 1292 ± 231.4 µmol/L
- Triglycerides ([7]; 30 mg/kg oral gavage): 66.5 ± 14.7 mg/dL
- Free Fatty Acids ([7]; 100 mg/kg oral gavage): 992.8 ± 172.1 µmol/L
- Triglycerides ([7]; 100 mg/kg oral gavage): 37.4 ± 8.3 mg/dL
- serum triglycerides and free fatty acids ([7]; oral gavage): effective at lowering
- insulin serum levels ([7]; oral gavage, after 4 weeks of drug treatments (FIG. 1)): effective at lowering
- leptin serum levels ([7]; oral gavage, after 4 weeks of drug treatments (FIG. 2)): effective at lowering
- Glucose ([8]; 100 mg/kg daily oral): 423 ± 53 mg/dL
- Glucose (% of Control) ([8]; 100 mg/kg daily oral): 67 ± 8 % of Control
- Glucose ([8]; 150 mg/kg daily oral): 279 ± 35 mg/dL
- Glucose (% of Control) ([8]; 150 mg/kg daily oral): 44 ± 6 % of Control
- Free Fatty Acids ± SEM ([8]; 100 mg/kg daily oral): 2999.9 ± 98.7 µM
- Triglycerides ± SEM ([8]; 100 mg/kg daily oral): 134.0 ± 13.1 mg/dL
- Free Fatty Acids ± SEM ([8]; 150 mg/kg daily oral): 2234.0 ± 162.6 µM
- Triglycerides ± SEM ([8]; 150 mg/kg daily oral): 103.6 ± 8.3 mg/dL

Structure (SMILES): CN(CCOc1ccc(CC2SC(=O)NC2=O)cc1)c1ccccn1 (centres unmarked) [Rosiglitazone, rosiglitazone, reference compound]
- Glucose ([6]; 20 mg/kg): 343 ± 38 mg/dL
- Triglycerides ([6]; 20 mg/kg): 89 ± 16 mg/dL
- Free Fatty Acids ([7]; 1 mg/kg oral gavage): 1537 ± 256.3 µmol/L
- Triglycerides ([7]; 1 mg/kg oral gavage): 76.6 ± 16.5 mg/dL
- Free Fatty Acids ([7]; 3 mg/kg oral gavage): 1833.2 ± 169.8 µmol/L
- Triglycerides ([7]; 3 mg/kg oral gavage): 103.2 ± 10.8 mg/dL
- Free Fatty Acids ([7]; 10 mg/kg oral gavage): 1810.3 ± 595 µmol/L
- Triglycerides ([7]; 10 mg/kg oral gavage): 129.5 ± 48.7 mg/dL
- Free Fatty Acids ([7]; 100 mg/kg oral gavage): 1568.5 ± 197 µmol/L
- Triglycerides ([7]; 100 mg/kg oral gavage): 88 ± 7.2 mg/dL
- Free Fatty Acids ± SEM ([3]; 1 mg/kg/day oral): 2090.75 ± 67.7 µmol/L
- Glucose ± SEM ([3]; 1 mg/kg/day oral): 142.75 ± 8.8 mg/dL
- Triglycerides ± SEM ([3]; 1 mg/kg/day oral): 109.75 ± 4.4 mg/dL
- Mean body weight gain (grams) ([3]; 1 mg/kg/day): +8.2 grams
- Free Fatty Acids ± SEM ([3]; 3 mg/kg/day oral): 2317.6 ± 85.3 µmol/L
- Glucose ± SEM ([3]; 3 mg/kg/day oral): 190.2 ± 12.7 mg/dL
- Triglycerides ± SEM ([3]; 3 mg/kg/day oral): 107.8 ± 3.8 mg/dL
- Mean body weight gain (grams) ([3]; 3 mg/kg/day): +8.5 grams
- Free Fatty Acids ± SEM ([3]; 10 mg/kg/day oral): 2606.4 ± 139.2 µmol/L
- Glucose ± SEM ([3]; 10 mg/kg/day oral): 188.2 ± 21.4 mg/dL
- Triglycerides ± SEM ([3]; 10 mg/kg/day oral): 111.2 ± 7.5 mg/dL
- Mean body weight gain (grams) ([3]; 10 mg/kg/day): +11.0 grams
- Free Fatty Acids ± SEM ([3]; 30 mg/kg/day oral): 1983.4 ± 66.1 µmol/L
- Glucose ± SEM ([3]; 30 mg/kg/day oral): 174.6 ± 11.5 mg/dL
- Triglycerides ± SEM ([3]; 30 mg/kg/day oral): 95.2 ± 4.8 mg/dL
- Mean body weight gain (grams) ([3]; 30 mg/kg/day): +12.0 grams
